Measurements as given in ChEMBL document CHEMBL6182916, “Unexpected Discovery of a Novel Triphenylphosphonium Alkylalcohol That Triggers Cancer Cell Death via Mitophagy and Ferroptosis” (J Med Chem, 2025).
Activity calls are given as the source filed them. No cut-off for these calls is given here.

How the values were obtained:
HCC827 [1] = assay: Induction of apoptosis in human HCC827 cells assessed as necrotic cells at 1 uM measured after 36 hrs by annexin V and PI staining based flow cytometry analysis (Rvb =0.84%); format: functional
Mitochondrial membrane [2] = assay: Induction of mitochondrial membrane depolarization in human BEAS-2B cells assessed as increase in JC-1 monomer ratio at 0.25 to 0.5 uM incubated for 4 hrs by JC-1 staining based confocal microscopy analysis; format: cell membranes; conditions: dose 0.25-0.5 µM
NCI-H460 = assay: Antiproliferative activity against human NCI-H460 cells assessed as inhibition of cell growth measured after 72 hrs by MTT assay; format: functional, cell-based; conditions: NCI-H460, 72 h
HCC827 [3] = assay: Induction of apoptosis in human HCC827 cells assessed as late apoptotic cells at 0.25 uM measured after 48 hrs by annexin V and PI staining based flow cytometry analysis (reference value: 1.29%); format: functional
HCC827 [4] = assay: Induction of apoptosis in human HCC827 cells assessed as necrotic cells at 1 uM measured after 48 hrs by annexin V and PI staining based flow cytometry analysis (reference value: 1.18%); format: functional
HCC827 [5] = assay: Antitumor activity against human HCC827 cells xenografted in female nude mouse model assessed as suppression of tumor growth at 5 to 10 mg/kg, ip measured every two days for 14 days; format: functional, organism-based; conditions: dose 5-10 mg/kg, time 14.0 day
HCC827 [6] = assay: Induction of apoptosis in human HCC827 cells assessed as viable cells at 1 uM measured after 48 hrs by annexin V and PI staining based flow cytometry analysis (reference value: 95.10%); format: functional; conditions: read-out: Activity
SK-LU-1 = assay: Antiproliferative activity against human SK-LU-1 cells assessed as inhibition of cell growth measured after 72 hrs by MTT assay; format: functional, cell-based; conditions: SK-LU-1, 72 h
HCC827 [7] = assay: Induction of ROS generation in human HCC827 cells assessed as increase in NAD+/NADH ratio at 1 uM incubated for 4 hrs by absorbance based analysis; format: functional, cell-based
HCC827 [8] = assay: Induction of apoptosis in human HCC827 cells assessed as necrotic cells at 0.5 uM measured after 48 hrs by annexin V and PI staining based flow cytometry analysis (reference value: 1.18%); format: functional
HCC827 [9] = assay: Downregulation of TOMM20 expression level in human HCC827 cells at 0.5 uM incubated for 24 hrs in presence of Baf A1 by Western blot analysis; format: functional, cell-based
HCC827 [10] = assay: Induction of mitochondrial dysfunction in human HCC827 cells assessed as cristae reduction by TEM analysis; format: functional, cell-based
HCC827 [11] = assay: Downregulation of VDAC1 expression level in human HCC827 cells 0.5 uM by Western blot analysis; format: functional, cell-based; conditions: time 3-24 hrs
MDA-MB-231 = assay: Antiproliferative activity against human MDA-MB-231 cells assessed as inhibition of cell growth measured after 72 hrs by MTT assay; format: functional, cell-based; conditions: MDA-MB-231, 72 h
BEAS-2B = assay: Induction of mitochondrial dysfunction in human BEAS-2B cells assessed as decrease in ATP production at 0.125 to 5 uM incubated for 4 hrs by Seahorse XF96 extracellular flux analyzer; format: functional, cell-based; conditions: dose 0.125-5 µM
HCC827 [12] = assay: Induction of cell cycle arrest in human HCC827 cells assessed as increase in p53 expression level at 0.25 to 5 uM measured after 24 hrs by Western blot analysis; format: functional, cell-based; conditions: dose 0.25-5 µM
HeLa [13] = assay: Induction of mitophagy in human HeLa cells harbouring mCherry-GFP tag assessed as visible mCherry fluorescence at 0.5 uM incubated for 24 hrs by confocal microscopy analysis; format: functional, cell-based
HCC827 [14] = assay: Downregulation of TOMM20 expression level in human HCC827 cells at 0.5 uM by Western blot analysis; format: functional, cell-based; conditions: time 3-24 hrs
Mitochondrial membrane [15] = assay: Induction of mitochondrial membrane depolarization in human HCC827 cells assessed as increase green fluorescence intensity at 0.125 to 0.5 uM incubated for 4 hrs by rhodamine 123 staining based confocal microscopy analysis; format: cell membranes; conditions: dose 0.125-0.5 µM
Mitochondrial membrane [16] = assay: Induction of mitochondrial membrane depolarization in human NCI-H1650 cells assessed as increase in JC-1 monomer ratio at 0.25 to 0.5 uM incubated for 4 hrs by JC-1 staining based confocal microscopy analysis; format: cell membranes; conditions: dose 0.25-0.5 µM
[17] = Drug accumulation in mitochondria of human HCC827 cells at 10 uM incubated for 10 mins in presence of CCCP by RP-HPLC-UV analysis; format: ADME; conditions: hcc827, 10 min
[18] = Antiproliferative activity against human BEAS-2B cells assessed as inhibition of cell growth measured after 72 hrs by MTT assay; format: toxicity, cell-based
HCC827 [19] = assay: Downregulation of HK-2 expression level in human HCC827 cells 0.25 to 0.5 uM incubated for 24 hrs in presence of BFA by Western blot analysis; format: functional, cell-based; conditions: dose 0.25-0.5 µM
HCC827 [20] = assay: Induction of cell cycle arrest in human HCC827 cells assessed as accumulation of cells at G1 phase at 0.4 uM incubated for 24 hrs by PI staining based flow cytometry analysis (reference value: 66.44%); format: functional
HCC827 [21] = assay: Induction of apoptosis in human HCC827 cells assessed as late apoptotic cells at 1 uM measured after 48 hrs by annexin V and PI staining based flow cytometry analysis (reference value: 1.29%); format: functional
HCC827 [22] = assay: Induction of ferroptosis in human HCC827 cells assessed as increase in lipid peroxidation level incubated for 24 hrs by absorbance based analysis; format: functional, cell-based; conditions: dose 0.25-0.5 µM
HCC827 [23] = assay: Induction of mitochondrial dysfunction in human HCC827 cells assessed as suppression of ATP production incubated for 4 hrs by Seahorse XF96 extracellular flux analyzer; format: functional, cell-based; conditions: dose 0.125-5 µM
HCC827 [24] = assay: Induction of ferroptosis in human HCC827 cells assessed as decrease in GPX4 expression incubated for 24 hrs; format: functional, cell-based; conditions: dose 0.25-0.5 µM
A-375 = assay: Antiproliferative activity against human A-375 cells assessed as inhibition of cell growth measured after 72 hrs by MTT assay; format: functional, cell-based; conditions: A-375, 72 h
HCC827 [25] = assay: Induction of apoptosis in human HCC827 cells assessed as early apoptotic cells at 0.25 uM measured after 48 hrs by annexin V and PI staining based flow cytometry analysis (reference value: 0.70%); format: functional
HeLa [26] = assay: Induction of mitophagy in human HeLa cells harbouring mCherry-GFP tag assessed as reduction in GFP fluorescence at 0.5 uM incubated for 24 hrs by confocal microscopy analysis; format: functional, cell-based

Cc1ccc([P+](CCCCCCCCCCO)(c2ccc(C)cc2)c2ccc(C)cc2)cc1.[Br-]
Activity (HCC827 [1]): 0.96%
Activity (Mitochondrial membrane [2]): inactive
IC50 (NCI-H460): 110 nM
Activity (HCC827 [3]): 3.3%
Activity (HCC827 [4]): 2.19%
Activity (HCC827 [5]): Active
viability at 1 µM (HCC827 [6]): 91.9%
IC50 (SK-LU-1): 230 nM
Activity (HCC827 [7]): Active
Activity (HCC827 [8]): 2.09%
Activity (HCC827 [9]): inactive
Activity (HCC827 [10]): Active
Activity (HCC827 [11]): Time-dependent-effect
IC50 (MDA-MB-231): 100 nM
Activity (BEAS-2B): Minimal_effect
Activity (HCC827 [12]): Active
Activity (HeLa [13]): Active
Activity (HCC827 [14]): Time-dependent-effect
Activity (Mitochondrial membrane [15]): inactive
Activity (Mitochondrial membrane [16]): Active
Drug uptake [17]: Not_active
IC50 at 72 h [18]: 1420 nM
Activity (HCC827 [19]): inactive
Activity (HCC827 [20]): 85.66%
Activity (HCC827 [21]): 9.96%
Activity (HCC827 [22]): Dose-dependent-effect
Activity (HCC827 [23]): Dose-dependent-effect
Activity (HCC827 [24]): Dose-dependent-effect
IC50 (A-375): 140 nM
Activity (HCC827 [25]): 1.16%
Activity (HeLa [26]): Active
